Results reported in patent US5994365A, “Substituted diazaanthracene compounds having pharmaceutical utility” (Diazans Limited, priority 1998, dated 1999).

Assays:
[1] = system: Strep pneumoniae; experiment: Broth microdilution (NCCLS guidelines), MIC; type: cell-based; details: Table A
Experimental: (§1) The dimer product of Example 15 was obtained in powder form. A stock solution of 1280 mg/L of the dimer in dimethylsulfoxide (DMSO) was prepared and stored at room temperature in a foil-wrapped screw-capped tube (10 ml). Subsequent dilutions were prepared using cation-adjusted Mueller-Hinton broth (50 mg/L Mg). […] It was resuspended upon mixing each time an aliquot was taken from the solution.
(§2) Approximately 100 varied bacterial isolates were initially collected for screening, along with 9 ATCC organisms. Forty additional strains of Staphylococcus species were subsequently screened. All isolates were identified according to generally accepted lab protocol.
(§3) Broth microdilution was performed according to NCCLS guidelines. Microdilution panels were prepared using doubling dilutions of the dimer in ~250 μl plastic, 96-well trays. Inoculum suspension equal to a 0.5 McFarland standard were further diluted and added to the microdilution trays to achieve a final inoculum of 5×10^5 CFU/ml (5×10^4 CFU/well). Colony counts were performed to confirm the final inoculum, as well as its purity. Each strain was also tested in a growth control well containing only MHB for viability.
(§4) Microdilution trays were incubated at 35° C. in ambient air or 5% CO2 as appropriate for 16-20 hours. After incubation, the minimal inhibitory concentration (MIC) was defined as the lowest concentration of the dimer with no evidence of growth. Since 10 or more strains of most organisms were tested; a range of MICs was determined for each organism, as well as the concentration of the dimer that inhibited 50% of the strains (MIC50) and the concentration of the dimer that inhibited 90% of the strains (MIC90).
(§5) **5% lysed horse blood in MHB (cation supplemented)

[2] = system: β strep grp A; experiment: Broth microdilution (NCCLS guidelines), MIC; type: cell-based; details: Table A
Experimental: as §1, §2, §3, §4, §5

[3] = system: C. neoformans ATCC 90112; experiment: In vitro antifungal susceptibility assay adapted from NCCLS (MIC); type: cell-based, Cryptococcus neoformans; details: RPMI-1640
Experimental: Compounds of the invention also display antifungal activities. […] Using C. albicans ATCC® 90028, C. neoformans ATCC® 90112 and T. glabrata ATCC® 90030, the protocol is performed as follows:
Prepare 0.0128 g DAA in 10 mL dH2 O (or other if H2 O insoluble)=1280 μg/mL (stock solution). Dilute DAA stock solution 1:10 with RPMI-1640: 0.5 mL DAA stock solution+4.5 mL RPMI-1640=128 μg/mL (DAA working solution).
Inoculate rows A-H, columns 2-12 with 100 μl of RPMI-1640 using Eppendorf repeater pipette. Inoculate rows A-C columns 1 and 2 with 100 μl of 1st antibiotic (i.e. DAA-1) using electronic pipette. Inoculate rows E-G columns 1 and 2 with 100 μl of 2nd antibiotic (i.e. DAA-2) using electronic pipette. […] Plate is now ready for fungal inocula, which involves pipetting 100 μl of the inocula into all wells in rows A-C columns 1-12 and rows E-G columns 1-12. […]
Five colonies greater than 1 mm in diameter are suspended in a spectrophotometer cuvette containing 5 mL of sterile, 0.85% saline (colonies are obtained from 24 hrs. old Candida and Torulopsis cultures, while Cryptococcus colonies are chosen from 48 hrs. old cultures). Spectrophotometer is set to read % transmission at a wavelength of 530 nm, and is standardized using two cuvettes. […] Fungal inoculum is now prepared and ready to be introduced to microplates. […]

[4] = system: S. aureus; experiment: Minimal bactericidal concentration (MBC), 99.9% kill; type: cell-based, Staphylococcus aureus
Experimental: as §3
(§6) Various isolates were also tested for minimal bactericidal concentration (MBC) (see Tables D and F).
Subbed clear wells (50 μl) Inoculum 5 × 10^4 /well
99.9% kill = 50 cols/well
(§7) Subbed 50 μl of ≤5 clear wells

[5] = system: ATCC S. epid 14990; experiment: as above; type: cell-based
Experimental: as §3, §6, §7

[6] = 10 strains, 5% lysed horse blood in MHB

## 10,10'-bis(3,6-dimethyl-5,10-dihydro-1,8-diazaanthracen-5-one) and 5,5'-bis(3,6-dimethyl-5,10-dihydro-1,8-diazaanthracen-10-one) [Example 15]
[1]; [6]
  MIC50: 8 µg/mL
  MIC90: 16 µg/mL
  Range of MICs: 8 to 32 mg/L
[1]; ATCC STRPNE 49619, 5% lysed horse blood in MHB
  MIC: 2.0 µg/mL
[2]; [6]
  MIC50: 32 µg/mL
  MIC90: 64 µg/mL
  Range of MICs: 32 to 64 mg/L
[2]; ATCC STRA 19615, 5% lysed horse blood in MHB
  MIC: 32 µg/mL
[3]
  MIC: 16 µg/mL
[4]; Table D, S. aureus 1
  MBC: 2 µg/mL
[4]; Table D, S. aureus 2
  MBC: > 16 µg/mL
[4]; Table D, S. aureus 3
  MBC: 16 µg/mL
[4]; Table D, S. aureus 4
  MBC: 8 µg/mL
[4]; Table D, S. aureus 5
  MBC: > 16 µg/mL
[4]; Table D, S. aureus 6, skipped wells
  MBC: > 16 µg/mL
[4]; Table D, S. aureus 7
  MBC: > 16 µg/mL
[4]; Table D, S. aureus 8, skipped wells
  MBC: > 16 µg/mL
[4]; Table F, ATCC S. aureus 25923
  MBC: 4 µg/mL
[4]; Table F, ATCC S. aureus 29213, skipped wells
  MBC: > 16 µg/mL
[4]; Table F, Pip/Taz S. aureus 1
  MBC: 8 µg/mL
[4]; Table F, Pip/Taz S. aureus 3
  MBC: 4 µg/mL
[4]; Table F, Pip/Taz S. aureus 7
  MBC: 2 µg/mL
[4]; Table F, S. aureus 1, skipped wells
  MBC: 4 µg/mL
[4]; Table F, S. aureus 2
  MBC: 1 µg/mL
[4]; Table F, S. aureus 8, skipped wells
  MBC: ≥ 8 µg/mL
[4]; Table G footnote, ATCC 25923, methicillin susceptible
  MBC: 4 µg/mL
[4]; Table G footnote, ATCC 29213, methicillin susceptible, skipped wells
  MBC: 16 µg/mL
[5]; Table F, ATCC S. epid 14990
  MBC: > 0.5 µg/mL
[5]; Table G footnote, ATCC 14990 (coag neg staph)
  MBC: ≥ 0.5 µg/mL
